# Patent US11795189B2, “Formulation and method for spray-drying D-tagatose” (University of Kentucky Research Foundation, priority 2020, dated 2023)
# How the values were obtained:
# [1] = granted 2004; such low toxicity that no daily intake monitoring is needed; cited from earlier work
# [2] = D-tagatose fully dissolved in water:organic dual solvent systems; format: physicochemical
# Source text: The solvent used in the spray-drying feed formulation may be substantially any solvent suitable for the intended purpose including, for example, an appropriate co-solvent system. That co-solvent system may include acetone and water. The acetone and water may be provided at a ratio of between 1:1 and 4.6:1 (v/v %). In other embodiments, the co-solvent system may include methanol and water, propanol and water or ethanol and water.
# [3] = Glass transition temperature (Tg) by DSC; format: physicochemical
# Description: Glass transition temperatures were determined using DSC for physical mixtures of D-tagatose and respective excipients subjected to melt quenching. Samples were prepared by geometrically mixing D-tagatose and excipients at a 1:1 (w/w) ratio. Once mixed, the samples were then rigorously ground using a mortar and pestle before being hermetically sealed within a T-Zero pan. Once sealed, the samples were transferred to a Q2000 DSC (TA Instruments, New Castle, DE). All samples were run with the DSC operating in the modulation mode with a “pinhole” lid to better capture the sample's behavior instead of any residual vapors. The modulating method was first equilibrated at −20° C. before heating at 10° C./min to 140° C. […] Once −10° C. was reached, samples were set to modulate at ±0.5° C. every 60 s immediately and held for 5 min before ramping 1° C./min back to 140° C. Reported Tg values were averages of triplicate samples, each determined from the midpoint of the glass transition step change from the resultant reversible heat flow curves vs. temperature thermograms. All DSC mass samples were between 1 and 5 mg.
# [4] = oral ingestion; cited from earlier work
# [5] = D-tagatose dissolved in tri-solvent systems; format: physicochemical
# Source text: Tri-solvent systems may also be used. One example of a tri-solvent system is ethanol, methanol and water.
# Table 2: Summarizes tri-solvent systems that have shown to dissolve D-tagatose.
# [6] = crystalline D-tagatose, at 20° C.; cited from earlier work
# type 2 diabetes = details: cited from earlier work
smiles,measurement,setting,value
"O=C(CO)[C@@H](O)[C@@H](O)[C@H](O)CO [D-tagatose, D-(−)-tagatose]",safe daily intake,[1],not specified
same,amount of D-tagatose dissolved,[2]; 2-Propanol:Water 5 mL:3.6 mL,~1 gram
same,w % Tagatose (fully dissolved),"[2]; 2-Propanol:water, 45.6 w % water, 43.3 w % organic",11.1 w %
same,amount of D-tagatose dissolved,[2]; Acetone:Water 5 mL:4.1 mL,~1 gram
same,w % Tagatose (fully dissolved),"[2]; Acetone:water, 46.0 w % water, 42.7 w % organic",11.3 w %
same,amount of D-tagatose dissolved,[2]; Ethanol:Water 5 mL:4.2 mL,~1 gram
same,w % Tagatose (fully dissolved),"[2]; Ethanol:water, 45.9 w % water, 42.5 w % organic",11.6 w %
same,amount of D-tagatose dissolved,[2]; Methanol:Water 5 mL:3.1 mL,~1 gram
same,w % Tagatose (fully dissolved),"[2]; Methanol:water, 46.0 w % water, 42.7 w % organic",11.2 w %
same,dry Tg (glass transition temperature),[3],18.92 °C
same,fraction of orally ingested dose fully metabolized,[4],20%
same,amount of D-tagatose dissolved,"[5]; 2-Propanol:Acetone:Water 1 mL:5 mL:3.8 mL, sonicate while adding water",~1 gram
same,amount of D-tagatose dissolved,"[5]; 2-Propanol:Acetone:Water 5 mL:1 mL:3.6 mL, sonicate while adding water",~1 gram
same,amount of D-tagatose dissolved,"[5]; 2-Propanol:Ethanol:Water 1 mL:5 mL:4.2 mL, sonicate while adding water",~1 gram
same,amount of D-tagatose dissolved,"[5]; 2-Propanol:Ethanol:Water 5 mL:1 mL:4.6 mL, sonicate while adding water",~1 gram
same,w % Tagatose (dissolved),"[5]; Ethanol 1 mL + 5 mL methanol + water, 37.324 w % water, 51.789 w % organic",10.887 w %
same,w % Tagatose (dissolved),"[5]; Ethanol 2 mL + 5 mL methanol + water, 36.185 w % water, 53.816 w % organic",9.999 w %
same,w % Tagatose (dissolved),"[5]; Ethanol 3 mL + 5 mL methanol + water, 32.436 w % water, 58.272 w % organic",9.292 w %
same,w % Tagatose (dissolved),"[5]; Methanol 1 mL + 5 mL ethanol + water, 39.808 w % water, 49.3620231 w % organic",10.830 w %
same,w % Tagatose (dissolved),"[5]; Methanol 2 mL + 5 mL ethanol + water, 37.459 w % water, 52.8123019 w % organic",9.729 w %
same,w % Tagatose (dissolved),"[5]; Methanol 3 mL + 5 mL ethanol + water, 35.506 w % water, 55.7893055 w % organic",8.704 w %
same,amount of D-tagatose dissolved,[5]; Methanol:Ethanol:Water 5 mL:1 mL:3.4 mL,~1 gram
same,aqueous solubility,[6],160 g/100 mL
same,effect on HbA1c,type 2 diabetes,lower
same,effect on LDL,type 2 diabetes,lower
same,effect on fasting blood glucose levels,type 2 diabetes,lower
same,effect on total cholesterol,type 2 diabetes,lower
